Measurements reported in ChEMBL document CHEMBL3991601, “The target landscape of clinical kinase drugs” (Science, 2017).
Calls of active or inactive are those of the source. Cut-off read from the data, not from the text of the source, for most assays here: actives have a measured Kd and inactives only a lower limit.

How the values were obtained:
[1] = biological target: Adenylate kinase 2, mitochondrial (Homo sapiens, UniProt P54819)
Ephrin type-A receptor 4 = Ephrin type-A receptor 4 (Homo sapiens, UniProt P54764)
[2] = biological target: T1, Structural maintenance of chromosomes protein 1A (Homo sapiens, UniProt Q14683)
T1 sequence (Q14683 whole entry): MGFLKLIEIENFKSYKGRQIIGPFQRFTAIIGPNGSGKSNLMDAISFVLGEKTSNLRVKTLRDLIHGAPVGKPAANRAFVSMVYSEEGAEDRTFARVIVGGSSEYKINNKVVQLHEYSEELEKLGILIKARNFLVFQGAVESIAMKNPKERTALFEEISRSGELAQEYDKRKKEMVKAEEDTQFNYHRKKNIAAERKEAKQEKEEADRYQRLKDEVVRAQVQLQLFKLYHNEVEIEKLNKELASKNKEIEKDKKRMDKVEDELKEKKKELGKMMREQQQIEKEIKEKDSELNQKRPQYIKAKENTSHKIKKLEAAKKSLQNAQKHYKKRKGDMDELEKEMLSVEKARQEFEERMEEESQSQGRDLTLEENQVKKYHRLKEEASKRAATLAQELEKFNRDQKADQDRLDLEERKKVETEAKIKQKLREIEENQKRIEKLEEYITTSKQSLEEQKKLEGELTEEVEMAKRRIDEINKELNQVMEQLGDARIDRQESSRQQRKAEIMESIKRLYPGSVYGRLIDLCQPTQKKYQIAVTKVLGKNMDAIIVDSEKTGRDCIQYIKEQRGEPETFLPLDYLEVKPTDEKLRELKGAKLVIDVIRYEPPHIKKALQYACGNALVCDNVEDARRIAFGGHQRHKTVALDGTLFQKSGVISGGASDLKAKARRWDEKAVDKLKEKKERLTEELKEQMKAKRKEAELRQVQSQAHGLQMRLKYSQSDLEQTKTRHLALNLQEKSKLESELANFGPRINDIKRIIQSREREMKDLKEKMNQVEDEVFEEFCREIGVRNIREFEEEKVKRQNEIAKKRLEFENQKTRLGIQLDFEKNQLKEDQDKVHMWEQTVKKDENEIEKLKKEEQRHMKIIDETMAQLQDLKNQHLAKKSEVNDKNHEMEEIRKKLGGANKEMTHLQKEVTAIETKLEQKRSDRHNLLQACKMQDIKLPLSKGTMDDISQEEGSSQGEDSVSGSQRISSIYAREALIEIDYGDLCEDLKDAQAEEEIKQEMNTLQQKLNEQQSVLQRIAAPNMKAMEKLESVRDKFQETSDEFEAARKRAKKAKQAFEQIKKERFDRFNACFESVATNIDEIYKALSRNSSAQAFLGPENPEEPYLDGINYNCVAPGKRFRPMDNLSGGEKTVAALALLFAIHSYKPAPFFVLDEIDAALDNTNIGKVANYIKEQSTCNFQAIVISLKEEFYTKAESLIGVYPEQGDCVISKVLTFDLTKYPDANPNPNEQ

[3] = biological target: Mitogen-activated protein kinase 11 (Homo sapiens, UniProt Q15759)
[4] = biological target: Ribosomal protein S6 kinase alpha-4 (Homo sapiens, UniProt O75676)
[5] = biological target: Proto-oncogene tyrosine-protein kinase Src (Homo sapiens, UniProt P12931)
[6] = biological target: T2, Serine/threonine-protein kinase 3 (Homo sapiens, UniProt Q13188)
T2 sequence (Q13188 whole entry): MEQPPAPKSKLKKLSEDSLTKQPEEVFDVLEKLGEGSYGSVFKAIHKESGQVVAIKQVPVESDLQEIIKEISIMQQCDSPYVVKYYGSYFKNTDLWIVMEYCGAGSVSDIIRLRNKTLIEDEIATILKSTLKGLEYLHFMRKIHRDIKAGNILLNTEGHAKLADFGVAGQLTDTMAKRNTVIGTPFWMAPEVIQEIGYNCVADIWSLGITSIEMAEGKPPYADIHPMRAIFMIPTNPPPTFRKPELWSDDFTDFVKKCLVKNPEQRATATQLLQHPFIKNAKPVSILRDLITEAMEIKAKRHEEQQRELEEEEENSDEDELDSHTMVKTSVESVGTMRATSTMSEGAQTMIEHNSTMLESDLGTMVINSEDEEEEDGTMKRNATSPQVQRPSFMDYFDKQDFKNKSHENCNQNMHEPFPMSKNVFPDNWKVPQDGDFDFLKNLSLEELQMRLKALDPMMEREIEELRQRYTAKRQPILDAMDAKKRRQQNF

[7] = biological target: Serine/threonine-protein kinase MRCK alpha (Homo sapiens, UniProt Q5VT25)
[8] = biological target: Maternal embryonic leucine zipper kinase (Homo sapiens, UniProt Q14680)
[9] = biological target: Tyrosine-protein kinase FRK (Homo sapiens, UniProt P42685)
[10] = biological target: Fibroblast growth factor receptor 1 (Homo sapiens, UniProt P11362)
[11] = biological target: Casein kinase I isoform alpha (Homo sapiens, UniProt P48729)
[12] = biological target: Tyrosine-protein kinase Fyn (Homo sapiens, UniProt P06241)
[13] = biological target: Interleukin-1 receptor-associated kinase 1 (Homo sapiens, UniProt P51617)
Note: in the data inactive means no Kd found up to 30 µM.

Chain of Proto-oncogene tyrosine-protein kinase Src (P12931 2-536 limits assumed): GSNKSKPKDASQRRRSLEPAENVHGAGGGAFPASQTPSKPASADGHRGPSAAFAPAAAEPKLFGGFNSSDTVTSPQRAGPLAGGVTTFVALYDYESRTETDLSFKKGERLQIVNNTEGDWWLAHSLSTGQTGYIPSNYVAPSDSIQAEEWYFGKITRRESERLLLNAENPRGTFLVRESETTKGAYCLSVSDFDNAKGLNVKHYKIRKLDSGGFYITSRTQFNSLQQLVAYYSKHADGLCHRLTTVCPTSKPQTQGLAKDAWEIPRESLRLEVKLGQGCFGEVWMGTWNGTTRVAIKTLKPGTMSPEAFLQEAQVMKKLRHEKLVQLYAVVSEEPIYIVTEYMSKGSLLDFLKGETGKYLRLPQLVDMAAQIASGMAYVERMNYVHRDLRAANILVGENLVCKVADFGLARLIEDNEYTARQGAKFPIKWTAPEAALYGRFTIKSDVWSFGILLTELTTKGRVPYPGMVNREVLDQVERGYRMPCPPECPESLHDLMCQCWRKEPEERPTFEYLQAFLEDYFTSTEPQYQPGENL
Chain of Serine/threonine-protein kinase MRCK alpha (Q5VT25 whole entry): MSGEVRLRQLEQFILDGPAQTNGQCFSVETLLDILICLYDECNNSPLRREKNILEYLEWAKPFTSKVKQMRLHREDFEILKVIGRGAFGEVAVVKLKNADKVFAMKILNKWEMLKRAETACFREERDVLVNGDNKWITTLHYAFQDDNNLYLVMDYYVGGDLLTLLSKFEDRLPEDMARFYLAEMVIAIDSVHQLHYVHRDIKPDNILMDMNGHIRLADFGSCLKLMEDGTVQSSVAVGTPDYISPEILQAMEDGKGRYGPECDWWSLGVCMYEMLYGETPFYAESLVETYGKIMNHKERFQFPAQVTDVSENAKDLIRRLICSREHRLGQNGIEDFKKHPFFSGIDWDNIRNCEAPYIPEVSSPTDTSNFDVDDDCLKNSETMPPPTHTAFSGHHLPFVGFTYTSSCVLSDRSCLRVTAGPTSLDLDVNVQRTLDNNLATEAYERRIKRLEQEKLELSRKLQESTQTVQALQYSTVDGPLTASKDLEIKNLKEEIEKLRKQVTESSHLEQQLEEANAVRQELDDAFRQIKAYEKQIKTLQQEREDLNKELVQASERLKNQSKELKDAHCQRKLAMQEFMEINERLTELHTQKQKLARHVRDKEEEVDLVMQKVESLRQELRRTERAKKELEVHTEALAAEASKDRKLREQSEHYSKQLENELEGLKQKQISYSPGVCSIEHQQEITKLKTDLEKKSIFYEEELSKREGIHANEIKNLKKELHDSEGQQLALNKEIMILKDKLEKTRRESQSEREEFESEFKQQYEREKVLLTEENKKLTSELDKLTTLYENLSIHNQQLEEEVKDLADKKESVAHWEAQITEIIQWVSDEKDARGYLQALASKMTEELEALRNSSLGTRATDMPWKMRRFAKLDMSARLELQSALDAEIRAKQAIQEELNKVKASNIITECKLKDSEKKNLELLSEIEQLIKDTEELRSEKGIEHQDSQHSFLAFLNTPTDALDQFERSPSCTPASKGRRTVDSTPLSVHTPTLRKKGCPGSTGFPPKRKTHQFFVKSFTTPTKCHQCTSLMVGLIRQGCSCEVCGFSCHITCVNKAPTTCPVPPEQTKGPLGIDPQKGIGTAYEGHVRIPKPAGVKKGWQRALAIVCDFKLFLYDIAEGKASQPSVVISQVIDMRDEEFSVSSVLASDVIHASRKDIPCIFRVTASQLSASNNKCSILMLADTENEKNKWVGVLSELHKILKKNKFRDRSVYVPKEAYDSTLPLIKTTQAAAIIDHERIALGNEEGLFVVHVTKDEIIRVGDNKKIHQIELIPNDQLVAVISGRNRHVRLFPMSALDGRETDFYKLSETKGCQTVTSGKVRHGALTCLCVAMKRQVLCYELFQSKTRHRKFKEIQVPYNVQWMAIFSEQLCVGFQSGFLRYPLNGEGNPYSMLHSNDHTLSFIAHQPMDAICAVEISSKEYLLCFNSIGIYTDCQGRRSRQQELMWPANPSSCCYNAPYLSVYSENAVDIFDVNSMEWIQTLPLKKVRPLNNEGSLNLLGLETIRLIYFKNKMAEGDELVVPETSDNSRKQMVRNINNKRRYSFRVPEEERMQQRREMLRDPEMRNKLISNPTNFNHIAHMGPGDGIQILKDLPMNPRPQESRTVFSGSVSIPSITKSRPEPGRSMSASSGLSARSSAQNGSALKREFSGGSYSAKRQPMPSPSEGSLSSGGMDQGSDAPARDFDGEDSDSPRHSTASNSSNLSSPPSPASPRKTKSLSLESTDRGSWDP
Chain of Tyrosine-protein kinase Fyn (P06241 whole entry): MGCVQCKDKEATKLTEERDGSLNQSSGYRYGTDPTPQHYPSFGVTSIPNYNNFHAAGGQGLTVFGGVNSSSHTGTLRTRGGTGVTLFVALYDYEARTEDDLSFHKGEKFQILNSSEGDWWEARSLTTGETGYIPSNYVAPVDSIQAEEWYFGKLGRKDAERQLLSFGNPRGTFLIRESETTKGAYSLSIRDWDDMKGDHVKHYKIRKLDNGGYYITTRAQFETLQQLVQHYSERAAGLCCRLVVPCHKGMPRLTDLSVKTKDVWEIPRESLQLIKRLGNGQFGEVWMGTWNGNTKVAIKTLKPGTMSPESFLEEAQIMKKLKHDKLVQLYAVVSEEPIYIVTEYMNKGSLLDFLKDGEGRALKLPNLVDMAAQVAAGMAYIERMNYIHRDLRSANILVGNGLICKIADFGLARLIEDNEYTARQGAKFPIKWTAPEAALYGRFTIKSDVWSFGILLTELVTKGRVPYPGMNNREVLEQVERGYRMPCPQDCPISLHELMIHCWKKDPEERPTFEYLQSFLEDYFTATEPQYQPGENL
Chain of Maternal embryonic leucine zipper kinase (Q14680 whole entry): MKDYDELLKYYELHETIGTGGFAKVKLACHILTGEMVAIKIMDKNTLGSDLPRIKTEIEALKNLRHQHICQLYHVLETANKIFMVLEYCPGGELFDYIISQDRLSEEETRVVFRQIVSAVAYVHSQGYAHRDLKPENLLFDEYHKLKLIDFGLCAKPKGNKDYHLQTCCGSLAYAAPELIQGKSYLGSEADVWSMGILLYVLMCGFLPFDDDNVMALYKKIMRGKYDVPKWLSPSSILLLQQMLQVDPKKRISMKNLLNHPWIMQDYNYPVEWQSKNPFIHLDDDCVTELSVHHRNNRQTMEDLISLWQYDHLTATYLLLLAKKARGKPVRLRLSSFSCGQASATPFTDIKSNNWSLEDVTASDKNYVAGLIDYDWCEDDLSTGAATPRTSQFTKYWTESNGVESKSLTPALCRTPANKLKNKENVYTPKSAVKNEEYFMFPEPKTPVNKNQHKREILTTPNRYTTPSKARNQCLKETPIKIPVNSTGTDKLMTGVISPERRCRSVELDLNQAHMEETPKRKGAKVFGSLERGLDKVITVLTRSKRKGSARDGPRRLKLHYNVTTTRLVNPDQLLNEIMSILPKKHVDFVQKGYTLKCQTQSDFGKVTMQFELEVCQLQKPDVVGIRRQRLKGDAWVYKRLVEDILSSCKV
Chain of Casein kinase I isoform alpha (P48729 whole entry, canonical isoform): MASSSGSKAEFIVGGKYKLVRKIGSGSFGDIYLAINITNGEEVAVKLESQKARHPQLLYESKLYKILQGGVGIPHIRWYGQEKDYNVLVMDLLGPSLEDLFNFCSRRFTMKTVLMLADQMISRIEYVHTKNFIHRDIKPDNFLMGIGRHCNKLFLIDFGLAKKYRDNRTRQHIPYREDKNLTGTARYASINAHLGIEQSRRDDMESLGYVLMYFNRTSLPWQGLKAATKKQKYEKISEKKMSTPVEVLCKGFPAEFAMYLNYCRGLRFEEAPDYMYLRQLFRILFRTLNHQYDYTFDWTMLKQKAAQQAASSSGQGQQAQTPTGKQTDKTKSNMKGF
Chain of Mitogen-activated protein kinase 11 (Q15759 whole entry): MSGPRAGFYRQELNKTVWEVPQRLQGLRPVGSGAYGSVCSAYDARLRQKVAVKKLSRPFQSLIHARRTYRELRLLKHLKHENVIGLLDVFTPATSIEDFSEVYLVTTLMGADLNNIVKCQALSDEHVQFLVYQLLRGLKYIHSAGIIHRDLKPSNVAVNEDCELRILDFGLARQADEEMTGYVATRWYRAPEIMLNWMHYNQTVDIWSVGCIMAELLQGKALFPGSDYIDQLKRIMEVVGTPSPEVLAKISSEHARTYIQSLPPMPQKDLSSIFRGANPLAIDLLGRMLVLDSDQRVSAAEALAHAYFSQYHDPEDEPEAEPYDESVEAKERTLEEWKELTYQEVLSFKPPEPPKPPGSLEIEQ
Chain of Fibroblast growth factor receptor 1 (P11362 whole entry, canonical isoform): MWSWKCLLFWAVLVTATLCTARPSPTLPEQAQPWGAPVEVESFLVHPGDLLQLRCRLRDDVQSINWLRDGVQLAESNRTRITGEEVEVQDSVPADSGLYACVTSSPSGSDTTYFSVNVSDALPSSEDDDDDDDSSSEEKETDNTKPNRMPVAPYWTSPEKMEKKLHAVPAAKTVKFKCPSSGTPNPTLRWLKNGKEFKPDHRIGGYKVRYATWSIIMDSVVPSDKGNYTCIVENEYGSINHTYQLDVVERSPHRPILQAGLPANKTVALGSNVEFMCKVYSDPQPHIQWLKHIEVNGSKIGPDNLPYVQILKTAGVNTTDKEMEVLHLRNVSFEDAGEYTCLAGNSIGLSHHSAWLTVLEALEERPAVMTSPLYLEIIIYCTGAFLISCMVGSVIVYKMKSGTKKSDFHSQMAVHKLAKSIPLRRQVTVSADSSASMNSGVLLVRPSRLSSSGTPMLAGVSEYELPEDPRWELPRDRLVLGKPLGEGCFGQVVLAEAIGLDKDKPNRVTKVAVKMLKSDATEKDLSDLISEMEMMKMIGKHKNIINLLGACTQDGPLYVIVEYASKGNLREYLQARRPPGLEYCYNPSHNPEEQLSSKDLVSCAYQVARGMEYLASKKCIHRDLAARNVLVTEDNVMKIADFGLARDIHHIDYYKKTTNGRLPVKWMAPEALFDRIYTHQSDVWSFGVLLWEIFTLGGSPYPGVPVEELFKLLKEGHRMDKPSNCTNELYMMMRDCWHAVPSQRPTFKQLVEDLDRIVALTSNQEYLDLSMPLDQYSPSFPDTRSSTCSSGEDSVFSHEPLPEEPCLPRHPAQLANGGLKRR

Row | SMILES | Kd [1] | Kd (Ephrin type-A receptor 4) | Kd [2] | Kd [3] | Kd [4] | Kd [5] | Kd [6] | Kd [7] | Kd [8] | Kd [9] | Kd [10] | Kd [11] | Kd [12] | Kd [13]
1 | C[C@]1(O)C[C@@H](c2nc(-c3ccc4ccc(-c5ccccc5)nc4c3)c3c(N)nccn32)C1 [LINSITINIB] | > 30 µM (inactive) | > 30 µM (inactive) | > 30 µM (inactive) | 0.01 µM | > 30 µM (inactive) |  |  |  |  |  |  |  |  | 
2 | CN(c1ncccc1CNc1nc(Nc2ccc3c(c2)CC(=O)N3)ncc1C(F)(F)F)S(C)(=O)=O [PF-00562271] | > 30 µM (inactive) | > 30 µM (inactive) | > 30 µM (inactive) | > 30 µM (inactive) | > 30 µM (inactive) |  |  |  |  |  |  |  |  | 
3 | Cn1c(=O)n(-c2ccc(C(C)(C)C#N)cc2)c2c3cc(-c4cnc5ccccc5c4)ccc3ncc21 [DACTOLISIB] | > 30 µM (inactive) | > 30 µM (inactive) | > 30 µM (inactive) | > 30 µM (inactive) | > 30 µM (inactive) | > 30 µM (inactive) | > 30 µM (inactive) | > 30 µM (inactive) | > 30 µM (inactive) | > 30 µM (inactive) |  |  |  | 
4 | CCOc1ccn(-c2ccc(F)cc2)c(=O)c1C(=O)Nc1ccc(Oc2ccnc(N)c2Cl)c(F)c1 [BMS-777607] | > 30 µM (inactive) | > 30 µM (inactive) | > 30 µM (inactive) | > 30 µM (inactive) | > 30 µM (inactive) | > 30 µM (inactive) | > 30 µM (inactive) | > 30 µM (inactive) | > 30 µM (inactive) | 0.33 µM (active) | > 30 µM (inactive) | > 30 µM (inactive) | > 30 µM (inactive) | 
5 | CC1(COc2ccc3c(c2)ncn3-c2ccc3cccc(N4CCC(N)CC4)c3n2)COC1 [CRENOLANIB] | > 30 µM (inactive) | > 30 µM (inactive) | > 30 µM (inactive) | > 30 µM (inactive) | > 30 µM (inactive) | > 30 µM (inactive) | 0.743 µM (active) | > 30 µM (inactive) | 4.23 µM (active) | > 30 µM (inactive) | > 30 µM (inactive) | > 30 µM (inactive) | > 30 µM (inactive) | 
6 | Cn1cnc2c(F)c(Nc3ccc(Br)cc3Cl)c(C(=O)NOCCO)cc21 [SELUMETINIB] | > 30 µM (inactive) |  | 0.365 µM |  |  |  |  |  |  |  |  |  |  | 
7 | O=S(=O)(c1cccc2cnccc12)N1CCCNCC1 [FASUDIL] | > 30 µM (inactive) | > 30 µM (inactive) | > 30 µM (inactive) | > 30 µM (inactive) | > 30 µM (inactive) |  |  |  | 1.92 µM (active) | > 30 µM (inactive) |  |  | > 30 µM (inactive) | > 30 µM (inactive)
8 | CNC(=O)c1cc(COc2nnc(Nc3ccc(Cl)cc3)c3ccoc23)ccn1 [TELATINIB] | > 30 µM (inactive) | > 30 µM (inactive) | > 30 µM (inactive) | > 30 µM (inactive) | > 30 µM (inactive) | > 30 µM (inactive) | > 30 µM (inactive) |  | > 30 µM (inactive) | > 30 µM (inactive) | > 30 µM (inactive) | > 30 µM (inactive) | > 30 µM (inactive) | > 30 µM (inactive)
9 | COc1cc2c(N3CCN(C(=O)Nc4ccc(OC(C)C)cc4)CC3)ncnc2cc1OCCCN1CCCCC1 [TANDUTINIB] | > 30 µM (inactive) |  |  |  |  |  |  |  |  |  |  |  |  | 
10 | COc1cc2c(Oc3ccc4[nH]c(C)cc4c3F)ncnc2cc1OCCCN1CCCC1 [CEDIRANIB] | > 30 µM (inactive) |  | > 30 µM (inactive) |  |  | > 30 µM (inactive) |  |  |  |  |  |  | > 30 µM (inactive) | 
11 | CNC(=O)c1ccc(Nc2ncc(C(F)(F)F)c(NCc3nccnc3N(C)S(C)(=O)=O)n2)cc1 [DEFACTINIB] | > 30 µM (inactive) | > 30 µM (inactive) | > 30 µM (inactive) | > 30 µM (inactive) | > 30 µM (inactive) | > 30 µM (inactive) | 4.95 µM (active) | > 30 µM (inactive) |  | > 30 µM (inactive) | > 30 µM (inactive) | > 30 µM (inactive) | > 30 µM (inactive) | > 30 µM (inactive)
12 | CC(C)CC(=O)Nc1[nH]nc2c1CN(C(=O)C1CCN(C)CC1)C2(C)C [PHA-793887] | > 30 µM (inactive) | > 30 µM (inactive) | > 30 µM (inactive) | > 30 µM (inactive) | > 30 µM (inactive) | > 30 µM (inactive) | > 30 µM (inactive) | > 30 µM (inactive) |  | > 30 µM (inactive) | > 30 µM (inactive) | > 30 µM (inactive) | > 30 µM (inactive) | 
13 | C=CCn1c(=O)c2cnc(Nc3ccc(N4CCN(C)CC4)cc3)nc2n1-c1cccc(C(C)(C)O)n1 [ADAVOSERTIB] | > 30 µM (inactive) | > 30 µM (inactive) | > 30 µM (inactive) | > 30 µM (inactive) | > 30 µM (inactive) | > 30 µM (inactive) |  | > 30 µM (inactive) | > 30 µM (inactive) | > 30 µM (inactive) |  |  |  | > 30 µM (inactive)
14 | CC1(C)CNc2cc(NC(=O)c3cccnc3NCc3ccncc3)ccc21 [MOTESANIB] | > 30 µM (inactive) |  | > 30 µM (inactive) |  |  |  |  |  |  |  |  |  |  | 
15 | CN(C)C/C=C/C(=O)Nc1cc2c(Nc3ccc(F)c(Cl)c3)ncnc2cc1O[C@H]1CCOC1 [AFATINIB] | > 30 µM (inactive) |  |  |  |  |  |  |  |  |  |  |  |  | 
16 | C[C@@]1(C(=O)Nc2ccc(F)nc2)CCCN1c1nc(Nc2cc(C3CC3)n[nH]2)c2cccn2n1 [BMS-754807] | > 30 µM (inactive) |  | > 30 µM (inactive) |  |  |  |  |  |  |  |  |  |  | 
17 | N#CCNC(=O)c1ccc(-c2ccnc(Nc3ccc(N4CCOCC4)cc3)n2)cc1 [MOMELOTINIB] | > 30 µM (inactive) | > 30 µM (inactive) | > 30 µM (inactive) |  | > 30 µM (inactive) | > 30 µM (inactive) |  |  |  | > 30 µM (inactive) | > 30 µM (inactive) | > 30 µM (inactive) | > 30 µM (inactive) | > 30 µM (inactive)
18 | CCN(CCCOc1ccc2c(Nc3cc(CC(=O)Nc4cccc(F)c4)n[nH]3)ncnc2c1)CCOP(=O)(O)O [BARASERTIB] | > 30 µM (inactive) | > 30 µM (inactive) | > 30 µM (inactive) | > 30 µM (inactive) | > 30 µM (inactive) | > 30 µM (inactive) |  | > 30 µM (inactive) |  | > 30 µM (inactive) |  |  |  | > 30 µM (inactive)
19 | O=S(=O)(c1cccc2c(O)nccc12)N1CCCNCC1 [HYDROXYFASUDIL] | > 30 µM (inactive) | > 30 µM (inactive) | > 30 µM (inactive) | > 30 µM (inactive) | > 30 µM (inactive) | > 30 µM (inactive) | > 30 µM (inactive) | > 30 µM (inactive) | > 30 µM (inactive) | > 30 µM (inactive) |  | > 30 µM (inactive) | > 30 µM (inactive) | > 30 µM (inactive)
